Data from ChEMBL document CHEMBL3751819, “Navigating into the chemical space between MGCD0103 and SAHA: novel histone deacetylase inhibitors as a promising lead” (Medchemcomm, 2015).
Calls of active or inactive are those of the source. No cut-off for these calls is given here.

How the values were obtained:
A549 [1] = experiment: Antiproliferative activity against human A549 cells assessed as reduction in cell viability after 48 hrs by MTT assay; format: functional, cell-based; conditions: A549, 48 h
HeLa [2] = experiment: Antiproliferative activity against human HeLa cells assessed as reduction in cell viability after 24 hrs by MTT assay; format: functional, cell-based
HeLa [3] = experiment: Antiproliferative activity against human HeLa cells assessed as reduction in cell viability after 48 hrs by MTT assay; format: functional, cell-based
HepG2 = experiment: Antiproliferative activity against human HepG2 cells assessed as reduction in cell viability after 48 hrs by MTT assay; format: functional, cell-based; conditions: HepG2, 48 h
MCF7 [4] = experiment: Antiproliferative activity against human MCF7 cells assessed as reduction in cell viability after 48 hrs by MTT assay; format: functional, cell-based; conditions: MCF7, 48 h
MCF7 [5] = experiment: Antiproliferative activity against human MCF7 cells assessed as reduction in cell viability after 72 hrs by MTT assay; format: functional, cell-based; conditions: MCF7, 72 h
HeLa [6] = experiment: Induction of apoptosis in human HeLa cells assessed as early apoptotic cells at 1.25 uM after 48 hrs by annexin-V-FITC/propidium iodide staining based flow cytometry (reference value: 1.4%); format: functional
HeLa [7] = experiment: Induction of apoptosis in human HeLa cells assessed as necrotic cells at 1.25 uM after 48 hrs by annexin-V-FITC/propidium iodide staining based flow cytometry (reference value: 0.693%); format: functional
HeLa [8] = experiment: Induction of apoptosis in human HeLa cells assessed as late apoptotic cells at 2.5 uM after 48 hrs by annexin-V-FITC/propidium iodide staining based flow cytometry (reference value: 9.3%); format: functional
HeLa [9] = experiment: Induction of apoptosis in human HeLa cells assessed as viable cells at 5 uM after 48 hrs by annexin-V-FITC/propidium iodide staining based flow cytometry (reference value: 88.6%); format: functional; conditions: Homo sapiens, HeLa, 48 h; read-out: Activity
HeLa [10] = experiment: Induction of apoptosis in human HeLa cells assessed as late apoptotic cells at 5 uM after 48 hrs by annexin-V-FITC/propidium iodide staining based flow cytometry (reference value: 9.3%); format: functional
HeLa [11] = experiment: Induction of cell cycle arrest in human HeLa cells assessed as accumulation at G0/G1 phase at 1 uM after 24 hrs by propidium iodide staining based flow cytometry (reference value: 0.5 to 0.52%); format: functional
HeLa [12] = experiment: Induction of cell cycle arrest in human HeLa cells assessed as accumulation at G2/M phase at 0.5 uM after 24 hrs by propidium iodide staining based flow cytometry (reference value: 0.35 to 0.37%); format: functional
HeLa [13] = experiment: Induction of cell cycle arrest in human HeLa cells assessed as accumulation at G2/M phase at 2 uM after 24 hrs by propidium iodide staining based flow cytometry (reference value: 0.35 to 0.37%); format: functional
Histone deacetylase 1 = Histone deacetylase 1 (Homo sapiens, UniProt Q13547); experiment: Inhibition of HDAC1 (unknown origin) using Boc-Lys(acetyl)-AMC as substrate preincubated for 5 mins followed by substrate addition by fluorescence assay
Chain of Histone deacetylase 1 (Q13547 whole entry): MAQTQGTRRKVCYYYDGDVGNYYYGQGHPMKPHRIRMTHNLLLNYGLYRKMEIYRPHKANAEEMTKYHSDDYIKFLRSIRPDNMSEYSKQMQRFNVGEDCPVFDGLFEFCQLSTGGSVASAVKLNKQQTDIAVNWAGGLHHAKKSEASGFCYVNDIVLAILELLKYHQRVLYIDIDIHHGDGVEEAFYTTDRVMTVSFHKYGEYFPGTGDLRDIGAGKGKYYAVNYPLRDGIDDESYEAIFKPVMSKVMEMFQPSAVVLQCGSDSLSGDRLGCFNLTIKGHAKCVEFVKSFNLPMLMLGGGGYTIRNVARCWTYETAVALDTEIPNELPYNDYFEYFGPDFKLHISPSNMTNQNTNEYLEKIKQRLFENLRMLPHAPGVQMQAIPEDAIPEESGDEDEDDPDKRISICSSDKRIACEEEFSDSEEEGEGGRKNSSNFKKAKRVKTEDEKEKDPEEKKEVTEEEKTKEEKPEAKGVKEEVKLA

Histone deacetylase 3 = Histone deacetylase 3 (Homo sapiens, UniProt O15379); experiment: Inhibition of HDAC3 (unknown origin) using Boc-Lys(acetyl)-AMC as substrate preincubated for 5 mins followed by substrate addition by fluorescence assay
Chain of Histone deacetylase 3 (O15379 whole entry): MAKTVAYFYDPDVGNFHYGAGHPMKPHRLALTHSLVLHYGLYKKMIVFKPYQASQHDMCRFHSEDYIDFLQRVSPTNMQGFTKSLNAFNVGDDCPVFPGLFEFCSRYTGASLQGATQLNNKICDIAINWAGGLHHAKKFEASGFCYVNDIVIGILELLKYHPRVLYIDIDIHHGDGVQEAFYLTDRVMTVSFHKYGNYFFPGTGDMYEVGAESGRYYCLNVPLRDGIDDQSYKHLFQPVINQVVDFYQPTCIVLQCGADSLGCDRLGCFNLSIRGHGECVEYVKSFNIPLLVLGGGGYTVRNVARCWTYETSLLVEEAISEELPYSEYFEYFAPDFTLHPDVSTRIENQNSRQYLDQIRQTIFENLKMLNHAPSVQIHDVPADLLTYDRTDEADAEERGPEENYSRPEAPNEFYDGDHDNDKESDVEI

[14] = target: T1, Protein deacetylase HDAC6 (Homo sapiens) (UniProt Q9UBN7); experiment: Inhibition of HDAC6 in human A549 cells assessed as increase in acetylated tubulin expression at 5 uM incubated for 12 hrs by DAPI staining based immunofluorescence microscopy; format: cell-based
T1 sequence (whole entry): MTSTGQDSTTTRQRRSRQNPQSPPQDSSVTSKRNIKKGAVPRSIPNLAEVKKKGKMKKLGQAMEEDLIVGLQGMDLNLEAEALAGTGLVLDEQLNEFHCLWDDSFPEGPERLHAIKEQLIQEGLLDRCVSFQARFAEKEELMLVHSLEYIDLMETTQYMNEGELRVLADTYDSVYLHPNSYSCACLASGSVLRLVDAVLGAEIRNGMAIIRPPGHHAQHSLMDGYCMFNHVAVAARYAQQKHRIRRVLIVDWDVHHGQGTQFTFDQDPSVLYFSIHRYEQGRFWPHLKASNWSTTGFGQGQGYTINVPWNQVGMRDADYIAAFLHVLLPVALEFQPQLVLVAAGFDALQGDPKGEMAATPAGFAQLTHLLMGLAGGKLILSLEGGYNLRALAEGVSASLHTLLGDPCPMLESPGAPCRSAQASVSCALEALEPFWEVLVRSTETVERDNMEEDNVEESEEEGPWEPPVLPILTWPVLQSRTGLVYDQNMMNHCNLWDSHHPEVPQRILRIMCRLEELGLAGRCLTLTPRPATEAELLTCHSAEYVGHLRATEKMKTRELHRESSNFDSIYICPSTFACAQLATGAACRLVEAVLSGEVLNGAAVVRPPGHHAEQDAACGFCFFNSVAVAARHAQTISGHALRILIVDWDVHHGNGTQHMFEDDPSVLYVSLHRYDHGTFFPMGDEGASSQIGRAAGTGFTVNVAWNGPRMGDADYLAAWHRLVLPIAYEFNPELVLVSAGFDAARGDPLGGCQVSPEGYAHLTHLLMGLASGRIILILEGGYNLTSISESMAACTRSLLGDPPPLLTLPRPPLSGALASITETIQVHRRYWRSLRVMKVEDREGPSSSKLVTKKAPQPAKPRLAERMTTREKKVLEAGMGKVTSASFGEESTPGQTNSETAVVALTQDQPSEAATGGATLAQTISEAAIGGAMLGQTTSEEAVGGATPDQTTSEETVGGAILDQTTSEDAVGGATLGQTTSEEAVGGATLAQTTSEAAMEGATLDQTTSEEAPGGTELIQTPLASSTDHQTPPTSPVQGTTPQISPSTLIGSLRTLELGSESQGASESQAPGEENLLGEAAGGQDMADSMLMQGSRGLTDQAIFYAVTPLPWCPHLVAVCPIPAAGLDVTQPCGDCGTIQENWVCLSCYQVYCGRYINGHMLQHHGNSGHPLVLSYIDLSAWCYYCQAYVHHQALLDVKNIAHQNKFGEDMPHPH

[15] = Half life in artificial gastric fluid; format: ADME
[16] = Half life in artificial intestinal fluid; format: ADME
[17] = Half life in mouse plasma; format: ADME, cell-free
[18] = Half life in mouse microsomes; format: ADME, Microsome
A549 [19] = experiment: Antiproliferative activity against human A549 cells assessed as reduction in cell viability after 24 hrs by MTT assay; format: functional, cell-based; conditions: A549, 24 h

SMILES | IC50 (A549 [1]) [µM] | IC50 (HeLa [2]) [µM] | IC50 (HeLa [3]) [µM] | IC50 (HepG2) [µM] | IC50 (MCF7 [4]) [µM] | IC50 (MCF7 [5]) [µM] | Activity (HeLa [6]) [%] | Activity (HeLa [7]) [%] | Activity (HeLa [8]) [%] | viability at 5 µM (HeLa [9]) [%] | Activity (HeLa [10]) [%] | Activity (HeLa [11]) [%] | Activity (HeLa [12]) [%] | Activity (HeLa [13]) [%] | IC50 (Histone deacetylase 1) [µM] | IC50 (Histone deacetylase 3) [µM] | inhibition [14] | half-life [15] [h] | half-life [16] [h] | half-life [17] [h] | also measured
O=C(NO)c1ccc(CNc2nccc(-c3cccnc3)n2)cc1 | 11.9 | 30.7 | 7.23 | 4.03 | 16 | 2.41 | 4.89 | 0.94 | 11.9 | 76.7 | 11.7 | 0.66 | 0.31 | 0.04 | 0.065 | 0.102 | Active | > 24 | > 24 | 12 | half-life [18]: 2.87 h
O=C(/C=C/c1ccc(CNc2nccc(-c3cccnc3)n2)cc1)NO | 8.32 | 53.4 | 3.79 | 5.95 | 23 | 2.66 | 4.27 | 0.924 | 13.2 | 76.5 | 12.4 | 0.64 | 0.3 | 0.09 | 0.082 | 0.113 | Active | > 24 | > 24 | 10 | IC50 (A549 [19]): 98 µM; half-life [18]: 2.5 h
